Measured values taken from patent US20120004281A1, “RNA Interference Mediated Inhibition of the Nerve Growth Factor Beta Chain (NGFB) Gene Expression Using Short Interfering Nucleic Acid (siNA)” (Merck Sharp & Dohme Corp, priority 2009, published 2012).
[invAb] = inverted abasic unit; m = 2'-O-methyl; r = 2'-OH (RNA); f = 2'-fluoro

Test system: NGFβ mRNA
Assay: NGFβ mRNA knock-down in Calu-1 cells (RNAiMax transfection, Taqman RT-PCR)
Format: cell-based, human
Conditions: human Calu-1 cells, 10 nM siNA, 24 hrs post-transfection, relative to non-targeting control, normalized to GAPDH
Method: Calu-1 (human; ATCC cat# HTB-54): Cells were cultured at 37° C. in the presence of 5% CO2 and grown in McCoy's 5a medium supplemented with fetal bovine serum at a final concentration of 10% and 100 μg/mL of streptomycin and 100 U/mL penicillin.
All transfections were performed using RNAiMax (Invitrogen Cat# 13778-150) as per the manufacturer's instructions.
Cells were plated in all wells of a tissue-culture treated, 96-well plate at a final count of 5,000 cells/well in […], of appropriate culture media. Cells were cultured for 24 hours after plating at 37° C. in the presence of 5% CO2.
After 24 hours, complexes containing siNA and RNAiMax were created as follows: A solution of RNAiMax diluted 33-fold in OPTI-MEM was prepared. In parallel, solutions of the siNAs for testing were prepared to a final concentration of 120 nM in OPTI-MEM. After incubation of RNAiMax/OPTI-MEM solution at room temperature for 5 min, an equal volume of the siRNA solution and the RNAiMax solution were added together for each of the siNAs.
This solution was incubated at room temperature for 20 minutes. After incubation, 20 uL of the solution was added to each of the relevant wells.
The final concentration of siNA in each well was 10 nM and the final volume of RNAiMax in each well was 0.3u1.
The time of incubation with the RNAiMax-siNA complexes was 24 hours, unless otherwise indicated. There was no change in media between the transfection and harvesting of the cells unless otherwise indicated.
Dose response curves were carried out in a similar fashion in 96-well plates, while maintaining a constant amount of RNAiMax in each transfection.
RNA was extracted from a 96-well plate using the TaqMan® Gene Expression Cells-to-CT™ Kit (Cat# 4399002) with a modified protocol. Briefly, a 60 uL (1 plate) or 110 uL (2 plates) of the Lysis Solution with DNase I was dispensed into each well of the Lysis Buffer Plate (twin.tec full skirt plate). The lysis buffer and stop plates were stored at 4° C. until the cells were washed.
The plate was spun at 1100 rpm for 5 minutes. The culture medium was aspirated and discarded from the wells of the culture plate. The lysis was performed automatically using a BioMek FX instrument and method. After the Biomek method was completed, the lysis plate was incubated for 2 min. at room temperature. The lysis plate can be stored for 2 hours at 4° C., or at −20° C. or −80° C. for two months.
Each well of the reverse transcription plate required 10 uL of 2× reverse transcriptase Buffer, luL of 20× reverse transcription enzyme and 2 uL of nuclease-free water. The reverse transcription master mix was prepared by mixing 2× reverse transcription buffer, 20× reverse transcription enzyme mix, and nuclease-free water. 13 uL of the reverse transcription master mix was dispensed into each well of the reverse transcription plate (semi-skirted). A separate reverse transcription plate was prepared for each cell plate. The plate was loaded onto a Biomek NX or Biomek FX Dual-96 and the Biomek method was run. The program is programmed to automatically added 7 uL of lysate from the cell lysis procedure described above into each well of the reverse transcription plate. The plate is sealed and spun on a centrifuge (1000 rpm for 30 seconds) to settle the contents to the bottom of the reverse transcription plate. The plate is placed in a thermocycler at 37° C. for 60 min, 95° C. for 5 min, and 4° C. until the plate is removed from the thermocycler. Upon removal, if not used immediately, the plate was frozen at −20° C.
A series of probes and primers were used to detect the various mRNA transcripts of the genes of NGFβ, BDNF and GAPDH in human cell lines. All the Taqman probes and primers for the experiments here-in described were supplied as pre-validated sets by Applied Biosystems, Inc. (see Table 3). The assays were performed on an ABI 7900 instrument, according to the manufacturer's instructions. […]

Substance	% KD in CaLu-1 Cells [%]
25415-DC: siNA duplex, NGFβ target site 609; sense B ccAccGccAcAGAcAucAA TTB (SEQ ID NO: 55), antisense UUGAuGucuGuGGcGGuGGUU (SEQ ID NO: 56) (sense CCACCGCCACAGACAUCAATT; antisense UUGAUGUCUGUGGCGGUGGUU; sense: DNA at AGT, 2'-fluoro at CU, [invAb] at 5' end, 3' end, backbone not given here; antisense: sugars from the 5' end rrrmfmfffmfmmfmmfmmmm, backbone not given here)	61
25418-DC: siNA duplex, NGFβ target site 650; sense B GGAGAGGuGAAcAuuAAcA TTB (SEQ ID NO: 61), antisense UGUuAAuGuucAccucuccUU (SEQ ID NO: 62) (sense GGAGAGGUGAACAUUAACATT; antisense UGUUAAUGUUCACCUCUCCUU; sense: DNA at AGT, 2'-fluoro at CU, [invAb] at 5' end, 3' end, backbone not given here; antisense: sugars from the 5' end rrrfmmfmfffmfffffffmm, backbone not given here)	26
25419-DC: siNA duplex, NGFβ target site 648; sense B uGGGAGAGGuGAAcAuuAA TTB (SEQ ID NO: 63), antisense UUAAuGuucAccucucccAUU (SEQ ID NO: 64) (sense UGGGAGAGGUGAACAUUAATT; antisense UUAAUGUUCACCUCUCCCAUU; sense: DNA at AGT, 2'-fluoro at CU, [invAb] at 5' end, 3' end, backbone not given here; antisense: sugars from the 5' end rrrmfmfffmffffffffmmm, backbone not given here)	25
25420-DC: siNA duplex, NGFβ target site 510; sense B AcAGGAcucAcAGGAGcAA TTB (SEQ ID NO: 65), antisense UUGcuccuGuGAGuccuGuUU (SEQ ID NO: 66) (sense ACAGGACUCACAGGAGCAATT; antisense UUGCUCCUGUGAGUCCUGUUU; sense: DNA at AGT, 2'-fluoro at CU, [invAb] at 5' end, 3' end, backbone not given here; antisense: sugars from the 5' end rrrfffffmfmmmffffmfmm, backbone not given here)	44
25421-DC: siNA duplex, NGFβ target site 675; sense B uAuucAAAcAGuAcuuuuu TTB (SEQ ID NO: 67), antisense AAAAAGuAcUGuuuGAAuAUU (SEQ ID NO: 68) (sense UAUUCAAACAGUACUUUUUTT; antisense AAAAAGUACUGUUUGAAUAUU; sense: DNA at AGT, 2'-fluoro at CU, [invAb] at 5' end, 3' end, backbone not given here; antisense: sugars from the 5' end rrrmmmfmfmmfffmmmfmmm, backbone not given here)	56
25423-DC: siNA duplex, NGFβ target site 519; sense B AcAGGAGcAAGcGGucAuc TTB (SEQ ID NO: 71), antisense GAUGAccGcuuGcuccuGuUU (SEQ ID NO: 72) (sense ACAGGAGCAAGCGGUCAUCTT; antisense GAUGACCGCUUGCUCCUGUUU; sense: DNA at AGT, 2'-fluoro at CU, [invAb] at 5' end, 3' end, backbone not given here; antisense: sugars from the 5' end rrrmmffmfffmfffffmfmm, backbone not given here)	40
25426-DC: siNA duplex, NGFβ target site 676; sense B AuucAAAcAGuAcuuuuuu TTB (SEQ ID NO: 77), antisense AAAAAAGuAcuGuuuGAAuUU (SEQ ID NO: 78) (sense AUUCAAACAGUACUUUUUUTT; antisense AAAAAAGUACUGUUUGAAUUU; sense: DNA at AGT, 2'-fluoro at CU, [invAb] at 5' end, 3' end, backbone not given here; antisense: sugars from the 5' end rrrmmmmfmffmfffmmmfmm, backbone not given here)	38
25427-DC: siNA duplex, NGFβ target site 516; sense B cucAcAGGAGcAAGcGGuc TTB (SEQ ID NO: 79), antisense GACcGcuuGcuccuGuGAGUU (SEQ ID NO: 80) (sense CUCACAGGAGCAAGCGGUCTT; antisense GACCGCUUGCUCCUGUGAGUU; sense: DNA at AGT, 2'-fluoro at CU, [invAb] at 5' end, 3' end, backbone not given here; antisense: sugars from the 5' end rrrfmfffmfffffmfmmmmm, backbone not given here)	6
25428-DC: siNA duplex, NGFβ target site 677; sense B uucAAAcAGuAcuuuuuuG TTB (SEQ ID NO: 81), antisense CAAAAAAGuAcuGuuuGAAUU (SEQ ID NO: 82) (sense UUCAAACAGUACUUUUUUGTT; antisense CAAAAAAGUACUGUUUGAAUU; sense: DNA at AGT, 2'-fluoro at CU, [invAb] at 5' end, 3' end, backbone not given here; antisense: sugars from the 5' end rrrmmmmmfmffmfffmmmmm, backbone not given here)	57
25429-DC: siNA duplex, NGFβ target site 469; sense B ucAGGAucuGGAcuucGAG TTB (SEQ ID NO: 83), antisense CUCGAAGuccAGAuccuGAUU (SEQ ID NO: 84) (sense UCAGGAUCUGGACUUCGAGTT; antisense CUCGAAGUCCAGAUCCUGAUU; sense: DNA at AGT, 2'-fluoro at CU, [invAb] at 5' end, 3' end, backbone not given here; antisense: sugars from the 5' end rrrmmmmfffmmmffffmmmm, backbone not given here)	1
